Some test systems named below: MOLT-4 leukemia; ACHN renal; OVCAR-8 ovarian; UO-31 renal; CCRF-CEM leukemia; UACC-257 melanoma; HL-60(TB) leukemia; KM12 colon; SF-268 CNS; SF-539 CNS; SW-620 colon; NCI/ADR-RES ovarian; COLO 205 colon; UACC-62 melanoma; RXF 393 renal; K-562 leukemia.
Common to all, as to assay: growth of human tumour cells (NCI), 48 h

For nine compounds, TGI results are on record in PubChem BioAssay (NCI).

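These data come from cells grown in 96-well plates and exposed to compound for 48 hours at five concentrations. At the TGI there is no net growth.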 Bounds are passed on as bounds.

As for `C1=C(CC2=C[P+](c3ccccc3)(c3ccccc3)C=C(c3ccccc3)O2)OC(c2ccccc2)=C[P+]1(c1ccccc1)c1ccccc1`, the TGI in the assay on MOLT-4 leukemia is 1.6 µM; with ACHN renal it was 1.98 µM; in the assay on OVCAR-8 ovarian it was 0.69 µM; with UO-31 renal it was 2.94 µM; in the assay on CCRF-CEM leukemia, 1.54 µM; in the assay on UACC-257 melanoma, 1.33 µM. Besides, the TGI with HL-60(TB) leukemia came out at 0.446 µM; with KM12 colon, 1.1 µM; in the assay with SF-268 CNS, 1.61 µM; with SF-539 CNS, 1.36 µM; in the assay on SW-620 colon it was 1.42 µM; in the assay on NCI/ADR-RES ovarian, 66.7 µM. In the assay with COLO 205 colon, the TGI stood at 0.301 µM.

On to `CC(=O)OCC1OC(NC(=S)Nn2c(=O)[nH]c3ccccc3c2=O)C(OC(C)=O)C(OC(C)=O)C1OC(C)=O` (configuration not stated), for which the TGI with MOLT-4 leukemia, in the assay with UACC-62 melanoma, in the assay on ACHN renal, in the assay with OVCAR-8 ovarian, in the assay with UO-31 renal and with CCRF-CEM leukemia was greater than 100 µM throughout. In addition, the TGI with UACC-257 melanoma, with HL-60(TB) leukemia, with KM12 colon, in the assay on SF-268 CNS, in the assay with SF-539 CNS and in the assay with SW-620 colon was greater than 100 µM in each case. The TGI in the assay with RXF 393 renal, with NCI/ADR-RES ovarian and with COLO 205 colon was greater than 100 µM each time.

With `CN(C)CCn1c(=O)c2ccc(NCCNCCO)c3c(=O)c4ccccc4n(c1=O)c23`, the TGI worked out at 0.88 µM in the assay on UACC-62 melanoma; 15.9 µM in the assay on ACHN renal; 5.64 µM in the assay with OVCAR-8 ovarian; 0.842 µM with UO-31 renal; 3.14 µM in the assay on UACC-257 melanoma; 0.0197 µM in the assay on HL-60(TB) leukemia. For the same compound, the TGI is 2.42 µM with KM12 colon; 0.977 µM in the assay on SF-268 CNS; 1.08 µM in the assay with K-562 leukemia; 0.593 µM with SF-539 CNS; greater than 30.7 µM with SW-620 colon; 16.3 µM in the assay on NCI/ADR-RES ovarian. In the assay with COLO 205 colon, the TGI is 0.836 µM.

For `Cc1cccc2nc(-c3ccccc3)cc(=O)n12`, the TGI in the assay with MOLT-4 leukemia, in the assay with UACC-62 melanoma, in the assay on ACHN renal, in the assay with OVCAR-8 ovarian, with CCRF-CEM leukemia and in the assay with UACC-257 melanoma was greater than 100 µM in each case. Besides, the TGI with HL-60(TB) leukemia, in the assay with KM12 colon, in the assay on SF-268 CNS, in the assay with K-562 leukemia, with SF-539 CNS and in the assay with SW-620 colon was greater than 100 µM each time. Moreover, the TGI in the assay on RXF 393 renal, with NCI/ADR-RES ovarian and in the assay on COLO 205 colon was greater than 100 µM each time.

In the case of `Cc1ccc(S(=O)(=O)NC(=O)NCc2ccc(S(N)(=O)=O)cc2)cc1`, the TGI in the assay on MOLT-4 leukemia, in the assay on UACC-62 melanoma, in the assay on ACHN renal, in the assay on UO-31 renal, in the assay on HL-60(TB) leukemia and in the assay on KM12 colon was greater than 100 µM in each case. Besides, the TGI in the assay on SF-268 CNS, with K-562 leukemia, in the assay on SF-539 CNS, with SW-620 colon, with RXF 393 renal and with NCI/ADR-RES ovarian was greater than 100 µM throughout. In the assay with COLO 205 colon, the TGI was greater than 100 µM.

Take `CC(=O)O[C@H]1C(=O)[C@@]2(C)[C@H]([C@H](OC(=O)c3ccccc3)[C@]3(O)C[C@H](OC(=O)[C@H](O)[C@@H](NC(=O)c4ccc(N)cc4)c4ccccc4)C(C)=C1C3(C)C)[C@]1(OC(C)=O)CO[C@@H]1C[C@@H]2O`: the TGI in the assay with MOLT-4 leukemia is greater than 29.5 µM; in the assay on UACC-62 melanoma it was greater than 50 µM; in the assay with ACHN renal, greater than 50 µM; in the assay with OVCAR-8 ovarian, greater than 50 µM; in the assay with UO-31 renal it was greater than 50 µM; in the assay on CCRF-CEM leukemia, greater than 23.7 µM. The TGI with HL-60(TB) leukemia is 0.318 µM; in the assay with KM12 colon, greater than 50 µM; in the assay on SF-268 CNS, greater than 50 µM; in the assay on K-562 leukemia, 0.26 µM; in the assay on SF-539 CNS, 0.0309 µM; in the assay on SW-620 colon it was greater than 50 µM. Also, the TGI in the assay on RXF 393 renal and in the assay with NCI/ADR-RES ovarian was greater than 50 µM each time.

With `O=c1[nH]c(=O)n(C/C=C/CO)nc1Br`, the TGI in the assay with MOLT-4 leukemia, in the assay with UACC-62 melanoma, with ACHN renal, with OVCAR-8 ovarian, in the assay on UO-31 renal and with CCRF-CEM leukemia was greater than 100 µM throughout. The TGI in the assay with UACC-257 melanoma, with HL-60(TB) leukemia, with KM12 colon, in the assay with SF-268 CNS, in the assay with SF-539 CNS and with SW-620 colon was greater than 100 µM in each case. Moreover, the TGI with RXF 393 renal, in the assay on NCI/ADR-RES ovarian and with COLO 205 colon was greater than 100 µM in each case.

On to `O=C1C2=Cc3ccccc3CCN2c2ccccc21`, for which the TGI in the assay with MOLT-4 leukemia is 48 µM; with ACHN renal, greater than 31.6 µM; in the assay with OVCAR-8 ovarian it was greater than 100 µM; in the assay with UO-31 renal, greater than 100 µM; in the assay on CCRF-CEM leukemia it was 26.1 µM; in the assay with UACC-257 melanoma, greater than 79.9 µM. Moreover, the TGI was 72.4 µM in the assay with HL-60(TB) leukemia; greater than 62 µM in the assay on KM12 colon; greater than 74.2 µM in the assay on SF-268 CNS; 20.5 µM with K-562 leukemia; 27.2 µM in the assay on SF-539 CNS; greater than 31.6 µM in the assay on SW-620 colon. Besides, the TGI with NCI/ADR-RES ovarian was greater than 77.9 µM; in the assay with COLO 205 colon it was greater than 56 µM.

In the case of `CC12Nc3c(Cl)cc(Cl)cc3N1C(=O)c1ccccc12` (configuration not stated), the TGI with MOLT-4 leukemia, with UACC-62 melanoma, in the assay with ACHN renal, in the assay with OVCAR-8 ovarian, with UO-31 renal and in the assay with CCRF-CEM leukemia was greater than 100 µM in each case. In addition, the TGI in the assay on UACC-257 melanoma, in the assay with HL-60(TB) leukemia, in the assay on KM12 colon, with SF-268 CNS, in the assay on SF-539 CNS and in the assay with SW-620 colon was greater than 100 µM throughout. Also, the TGI with RXF 393 renal, in the assay with NCI/ADR-RES ovarian and in the assay with COLO 205 colon was greater than 100 µM in each case.
